Experimental data taken from PMC6966663 (Cancers, 2019).

What was measured:
[1] = system: HR+ advanced breast cancer; design: method as in PMID 31091374; conditions: in combination with fulvestrant, cited from earlier work
[2] = system: cells with PI3K/AKT/mTOR pathway alterations; conditions: cited from earlier work
[3] = human, in vivo
Excerpt: Safety evaluations included adverse events (AEs), vital signs, laboratory tests, and 12-lead electrocardiograms at screening, at planned times during each cycle, during follow-up, and up to 30 days after the last dose. Adverse events were graded using the National Cancer Institute Common CTCAE version 4.03.
Descriptive statistics were used to summarize demographic data, other baseline characteristics, AEs, safety parameters, and tumor assessment data. […] All subjects who completed the study were included in the evaluation of PD/PK. […] The incidence of treatment-emergent adverse events and drug-related adverse events, respectively, was summarized by treatment in frequency tables using the CTCAE grade.

[4] = design: method as in PMID 31478386; conditions: clinical; cited from earlier work
p-PRAS40 = system: p-PRAS40; design: method as in PMID 31118521; conditions: at 4 h post-dosing; cited from earlier work

Compound: Cc1nc(NC(=O)N2CCC[C@H]2C(N)=O)sc1-c1ccnc(C(C)(C)C(F)(F)F)c1 [alpelisib]
- PFS ([1]; PIK3CA-mutated HR+ advanced breast cancer after previous endocrine therapy, versus 5.7 for control): 11.0 months
- Overall response rate ([1]; patients without PIK3CA mutation as printed, versus 12.8% placebo control): 26.6%

Compound: NC(=O)c1ccc2nc(-c3ccc(C4(N)CCC4)cc3)c(-c3ccccc3)n2n1 [BAY 1125976]
- IC50 of inhibition of proliferation [2]: submicromolar
- Patients with at least one treatment-emergent adverse event (TEAE) [3]: 77 (97.5%) patients
- Patients with serious adverse events (SAEs) [3]: 33 patients

Compound: NC1(C(=O)N[C@@H](CCO)c2ccc(Cl)cc2)CCN(c2ncnc3[nH]ccc23)CC1 [AZD5363]
- Rate of Grade 3 hyperglycemia [4]: up to 39.0%
- Reduction in p-PRAS40 (p-PRAS40): about 60%
